From ChEMBL document CHEMBL3399989, “PTP1B inhibitors from stems of Angelica keiskei (Ashitaba)” (Bioorg Med Chem Lett, 2015)
The source made the active and inactive calls. The rule behind the calls is not given here.

Tests used:
[1] = biological target: T1, Tyrosine-protein phosphatase non-receptor type 1 (Homo sapiens) (UniProt P18031); test: Inhibition of PTP1B (unknown origin) at 20 ug/ml using pNPP substrate measured after 3 mins by colorimetric assay
T1 sequence (whole entry): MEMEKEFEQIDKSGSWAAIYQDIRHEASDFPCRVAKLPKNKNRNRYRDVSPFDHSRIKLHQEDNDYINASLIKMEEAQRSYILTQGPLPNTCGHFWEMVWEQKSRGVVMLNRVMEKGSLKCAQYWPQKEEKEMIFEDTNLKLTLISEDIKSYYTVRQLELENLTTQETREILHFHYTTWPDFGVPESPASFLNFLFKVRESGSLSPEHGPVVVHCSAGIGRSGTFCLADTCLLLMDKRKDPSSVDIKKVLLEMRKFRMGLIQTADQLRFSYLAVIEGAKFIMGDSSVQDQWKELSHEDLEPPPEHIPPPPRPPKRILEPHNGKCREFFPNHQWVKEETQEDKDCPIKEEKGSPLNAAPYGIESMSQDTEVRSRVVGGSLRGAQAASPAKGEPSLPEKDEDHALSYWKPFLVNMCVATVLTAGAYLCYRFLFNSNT

[2] = biological target: T2, Tyrosine-protein phosphatase non-receptor type 1 (Homo sapiens, UniProt P18031); test: Inhibition of PTP1B (unknown origin) using pNPP substrate measured after 3 mins by colorimetric assay
T2 sequence (P18031 whole entry): T1 sequence (whole entry)

[3] = biological target: T1, Tyrosine-protein phosphatase non-receptor type 1 (Homo sapiens); test: Fast-binding inhibition of PTP1B (unknown origin) using pNPP substrate by colorimetric method based enzyme kinetics assay
[4] = biological target: T1, Tyrosine-protein phosphatase non-receptor type 1 (Homo sapiens); test: Inhibition of PTP1B (unknown origin) using pNPP substrate by colorimetric method based enzyme kinetics assay; details: TDE = time-dependent effect
[5] = biological target: T1, Tyrosine-protein phosphatase non-receptor type 1 (Homo sapiens); test: Competitive inhibition of PTP1B (unknown origin) assessed as increase in substrate Km at 1.5 to 6 uM using pNPP substrate by colorimetric method based Lineweaver-Burk plot method
[6] = biological target: T1, Tyrosine-protein phosphatase non-receptor type 1 (Homo sapiens); test: Competitive inhibition of PTP1B (unknown origin) assessed as unchanged Vmax level at 1.5 to 6 uM using pNPP substrate by colorimetric method based Lineweaver-Burk plot method

Q: How did the inhibition [1] turn out when COc1c2ccoc2cc2oc(=O)ccc12 [BERGAPTEN] was run?
A: 98.4%

Q: What about the IC50 [2] of the same molecule?
A: 11.7 µM

Q: C=C(C)C(Cc1c(OC)ccc(C(=O)/C=C/c2ccc(O)cc2)c1O)OO (centres undefined) was tested. Which inhibition [1] did it give?
A: 99.4%

Q: What about the IC50 [2] of the same molecule?
A: 3.86 µM

Q: How did the inhibition [1] turn out when C=C(C)C(=O)Cc1c(OC)ccc(C(=O)/C=C/c2ccc(O)cc2)c1O was run?
A: 85.2%

Q: And the IC50 [2]?
A: 2.33 µM

Q: What about the inhibition [3] of the same molecule?
A: Active

Q: What about the inhibition [4] of the same molecule?
A: tde

Q: What about the inhibition [5] of the same molecule?
A: Active

Q: And the inhibition [6]?
A: Active

Q: What does the source list for CCOC1c2c(OC)ccc(C(=O)/C=C/c3ccc(O)cc3)c2OC1C(C)(C)O (centres undefined)?
A: inhibition [1]: 91.9%; IC50 [2]: 11.1 µM

Q: Which results are given for C[C@@H]1O[C@@H](Oc2c(-c3ccc(O)c(O)c3)oc3cc(O)cc(O)c3c2=O)[C@H](O)[C@H](O)[C@H]1O [QUERCITRIN]?
A: inhibition [1]: 64.4%; IC50 [2]: 39 µM

Q: Which inhibition [1] does the source give for COc1ccc(C(=O)/C=C/c2ccc(O)cc2)c2c1C(O)C(C(C)(C)O)O2 (centres undefined) here?
A: < 50%

Q: For C/C=C(/C)C(=O)O[C@H]1[C@@H](O)c2c(ccc3ccc(=O)oc23)OC1(C)C, which inhibition [1] is on record?
A: < 50%

Q: What does the source list for CC(C)=CCC/C(C)=C/Cc1c(O)ccc(C(=O)/C=C/c2ccc(O)cc2)c1O [XANTHOANGELOL]?
A: inhibition [1]: 79.8%; IC50 [2]: 5.02 µM

Q: Which inhibition [1] does the source give for O=c1c(O[C@@H]2OC[C@H](O)[C@H](O)[C@H]2O)c(-c2ccc(O)c(O)c2)oc2cc(O)cc(O)c12 here?
A: < 50%

Q: With C/C=C(/C)C(=O)O[C@@H]1Cc2c(ccc3ccc(=O)oc23)OC1(C)C [JATAMANSIN] as the molecule, how does the inhibition [1] read?
A: 93.5%

Q: And the IC50 [2]?
A: 35.2 µM

Q: How did the inhibition [1] turn out when O=c1cc(-c2ccc(O)c(O)c2)oc2cc(O[C@@H]3O[C@H](CO)[C@@H](O)[C@H](O)[C@H]3O)cc(O)c12 was run?
A: < 50%

Q: Which inhibition [1] does the source give for CC(C)C(=O)O[C@H]1Cc2c(ccc3ccc(=O)oc23)OC1(C)C here?
A: 93.7%

Q: And the IC50 [2]?
A: 30.3 µM

Q: COc1c2occc2cc2ccc(=O)oc12 was tested. Which inhibition [1] did it give?
A: < 50%

Q: For COc1ccc(C(=O)/C=C/c2ccc(O)cc2)c2c1[C@H](O)[C@H](O)C(C)(C)O2, which inhibition [1] is on record?
A: < 50%

Q: With C/C=C(/C)C(=O)O[C@H]1c2c(ccc3ccc(=O)oc23)OC(C)(C)[C@H]1O as the molecule, how does the inhibition [1] read?
A: < 50%

Q: Which inhibition [1] does the source give for C=C(C)C(O)Cc1c(OC)ccc(C(=O)/C=C/c2ccc(O)cc2)c1O (centres undefined) [XANTHOANGELOL D] here?
A: 96.8%

Q: What about the IC50 [2] of the same molecule?
A: 11.2 µM

Q: How did the inhibition [1] turn out when C=C[C@@H](O)C#CC#C[C@@H](O)/C=C\CCCCCCC [FALCARINDIOL] was run?
A: 97.8%

Q: What about the IC50 [2] of the same molecule?
A: 31.6 µM

Q: How did the inhibition [1] turn out when COc1ccc(C(=O)/C=C/c2ccc(O)cc2)c(O)c1CC=C(C)C was run?
A: 86%

Q: And the IC50 [2]?
A: 7.3 µM

Q: What does the source list for COc1ccc(C(=O)/C=C/c2ccc(O)cc2)c(O)c1C/C=C(\C)CCC=C(C)C [XANTHOANGELOL F]?
A: inhibition [1]: 96.8%; IC50 [2]: 4.11 µM

Q: What does the source list for CC1(C)Oc2ccc3ccc(=O)oc3c2[C@@H](O)[C@H]1O (relative stereo)?
A: inhibition [1]: 92.3%; IC50 [2]: 39.7 µM

Q: How did the inhibition [1] turn out when O=c1c(O[C@@H]2O[C@H](CO)[C@H](O)[C@H](O)[C@H]2O)c(-c2ccc(O)c(O)c2)oc2cc(O)cc(O)c12 was run?
A: < 50%

Q: COc1ccc(C(=O)/C=C/c2ccc(O)cc2)c2c1[C@H](OC)[C@H](O)C(C)(C)O2 was tested. Which inhibition [1] did it give?
A: < 50%
